{"source": "patent US12006318B2", "about": "“Crystalline forms of C-C chemokine receptor type 4 antagonist and uses thereof” (RAPT THERAPEUTICS, INC., priority 2019, dated 2024)", "key": {"[1]": {"test": "Bioavailability of salt forms in rats", "format": "in vivo", "conditions": "for bioavailability: in rats"}, "[2]": {"test": "Solubility (kinetic solubility) of salt forms at pH 2", "format": "physicochemical", "conditions": "for solubility: in pH 2 water"}, "[3]": {"test": "Storage stability at room temperature", "format": "physicochemical", "conditions": "after 36 months of storage at room temperature"}, "[4]": {"test": "Hygroscopicity of the crystalline salt", "format": "physicochemical"}}, "note": "Read-outs that look alike come from different tables or passages of the source.", "data": [{"compound": "C[C@H](c1ccc(Cl)cc1Cl)n1nc(C(F)(F)F)c2ncc(N3CC([C@H]4CCCN(CCO)C4)C3)nc21.Cc1ccc(S(=O)(=O)O)cc1", "note": "[para-toluenesulfonic acid salt]", "values": [{"measurement": "bioavailability", "setting": "[1]", "value": 22, "unit": "%"}, {"measurement": "kinetic solubility as fraction of that of the HCl salt", "setting": "[2]; at pH 2, relative to HCl salt", "value": "⅕"}, {"measurement": "solubility", "setting": "[2]", "value": 190, "unit": "µM"}, {"measurement": "solubility compared with the amorphous HCl salt", "setting": "[2]; relative to amorphous HCl salt", "value": "less soluble"}]}, {"compound": "C[C@H](c1ccc(Cl)cc1Cl)n1nc(C(F)(F)F)c2ncc(N3CC([C@H]4CCCN(CCO)C4)C3)nc21", "note": "[crystalline form A, 2-((R)-3-(1-(1-((R)-1-(2,4-Dichlorophenyl)ethyl)-3-(trifluoromethyl)-1H-pyrazolo[3,4-b]pyrazin-6-yl)azetidin-3-yl)piperidin-1-yl)ethan-1-ol benzene sulfonate]", "values": [{"measurement": "bioavailability (in words)", "setting": "[1]; embodiment statement", "value": "good bioavailability"}, {"measurement": "bioavailability", "setting": "[1]; rat, in vivo, read-out: bioavailability", "value": 34, "unit": "%"}, {"measurement": "solubility (in words)", "setting": "[2]; embodiment statement", "value": "good solubility"}, {"measurement": "solubility", "setting": "[2]; water at pH 2, aqueous buffer", "value": 411, "unit": "µM"}, {"measurement": "stability on storage", "setting": "[3]", "value": "outstanding stability"}, {"measurement": "stability on storage", "setting": "[3]; listed as benzenesulfonic acid salt", "value": "superior stability"}, {"measurement": "hygroscopicity", "setting": "[4]", "value": "low hygroscopicity"}]}]}
